{
  "source": "patent US20200237626A1",
  "about": "“Anti-Aging Corrective and Protective Formulation and Methods” (JAMRM, LLC, priority 2019, published 2020)",
  "tested_on": "human skin cells (HEKn keratinocytes)",
  "experiment": "Urban Dust induced lipid peroxidation",
  "format": "cell-based",
  "settings": "after 4 hours, test sample 5%",
  "experimental": "A third-party testing facility conducted tests to determine the effects of standardized Urban Dust particulates (NIST® SRM® 1649b) on the production of free radicals and lipid peroxidation in human skin cells (HEKn keratinocytes). Tests were conducted at 1 hour, 2 hours and 3 hours with varying concentrations of the test samples (1%, 3%, and 5%) (i.e. at one hour intervals) to measure intracellular reactive oxygen species and after 4 hours with test sample (5%) for lipid peroxidation. A fluorescent plate reader was utilized to measure a fluorescent dye incubated in all test conditions which measures intracellular reactive oxygen species and lipid peroxidation. The measurement is expressed as the mean relative fluorescent unit (RFU). FIG. 4B illustrates by bar graph the effects of the Urban Dust on tissue. Non-exposed tissue has immeasurably low RFU. The urban dust exposed cells have an increase in lipid peroxidation with 0.2 RFU.",
  "data": [
    {"smiles": "Cc1c(C)c2c(c(C)c1O)CCC(C)(C(=O)O)O2", "note": "(centres unmarked) [Trolox]", "values": [
      {"measurement": "Lipid peroxidation (mean RFU)", "setting": "exposed to Urban Dust, Urban Dust alone 0.2 RFU", "result": "about 0.05 RFU"},
      {"measurement": "Reduction in lipid peroxidation", "setting": "vs Urban Dust exposed cells", "result": 67, "unit": "%"}
    ]}
  ]
}
